Measured values from paper PMC7248194, “Cell-Based Radiotracer Binding and Uptake Inhibition Assays: A Comparison of In Vitro Methods to Assess the Potency of Drugs That Target Monoamine Transporters” (Frontiers in Pharmacology, 2020).

Legend:
[1] = target: T1, rSERT (Rattus norvegicus, UniProt P31652); assay: saturation uptake, adherent HEK […] cells; assay type: cell-based; conditions: cell line 3; labelled compound, 200 nM [3H]-5-HT diluted with unlabelled; KHB pH 7.3, room temperature, 1 min; read-out: Km ± SD
T1 construct: gene Slc6a4; full-length, stably expressed in HEK 293 cells (Vienna, 'cell line 3')
T1 sequence (P31652 whole entry): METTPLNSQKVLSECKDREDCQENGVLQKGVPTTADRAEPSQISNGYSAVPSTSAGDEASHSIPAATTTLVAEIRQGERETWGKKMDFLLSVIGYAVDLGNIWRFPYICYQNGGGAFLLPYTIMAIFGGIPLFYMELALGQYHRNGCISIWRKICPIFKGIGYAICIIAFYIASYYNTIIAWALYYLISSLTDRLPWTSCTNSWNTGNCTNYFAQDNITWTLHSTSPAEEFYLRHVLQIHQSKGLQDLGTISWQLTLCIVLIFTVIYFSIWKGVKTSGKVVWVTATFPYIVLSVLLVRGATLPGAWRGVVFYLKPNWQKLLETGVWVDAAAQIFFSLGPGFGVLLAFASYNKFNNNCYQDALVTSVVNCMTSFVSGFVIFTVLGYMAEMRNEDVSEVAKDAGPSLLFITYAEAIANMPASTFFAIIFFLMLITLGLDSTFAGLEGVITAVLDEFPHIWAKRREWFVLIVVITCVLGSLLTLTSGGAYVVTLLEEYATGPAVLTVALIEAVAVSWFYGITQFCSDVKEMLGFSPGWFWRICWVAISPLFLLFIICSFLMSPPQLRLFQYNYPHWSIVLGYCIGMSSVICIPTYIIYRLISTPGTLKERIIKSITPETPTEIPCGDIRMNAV

[2] = target: T1, rSERT; assay: [3H]-CFT saturation binding, adherent HEK […] cells; assay type: cell-based; conditions: read-out: Kd ± SD
[3] = target: T2, rNET (Rattus norvegicus, UniProt Q63380); assay: [3H]-CFT saturation binding, adherent HEK […] cells; assay type: cell-based; conditions: read-out: Kd ± SD
T2 construct: gene Slc6a2; full-length, stably expressed in HEK 293 cells (Vienna, 'cell line 3')
T2 sequence (Q63380 1-617): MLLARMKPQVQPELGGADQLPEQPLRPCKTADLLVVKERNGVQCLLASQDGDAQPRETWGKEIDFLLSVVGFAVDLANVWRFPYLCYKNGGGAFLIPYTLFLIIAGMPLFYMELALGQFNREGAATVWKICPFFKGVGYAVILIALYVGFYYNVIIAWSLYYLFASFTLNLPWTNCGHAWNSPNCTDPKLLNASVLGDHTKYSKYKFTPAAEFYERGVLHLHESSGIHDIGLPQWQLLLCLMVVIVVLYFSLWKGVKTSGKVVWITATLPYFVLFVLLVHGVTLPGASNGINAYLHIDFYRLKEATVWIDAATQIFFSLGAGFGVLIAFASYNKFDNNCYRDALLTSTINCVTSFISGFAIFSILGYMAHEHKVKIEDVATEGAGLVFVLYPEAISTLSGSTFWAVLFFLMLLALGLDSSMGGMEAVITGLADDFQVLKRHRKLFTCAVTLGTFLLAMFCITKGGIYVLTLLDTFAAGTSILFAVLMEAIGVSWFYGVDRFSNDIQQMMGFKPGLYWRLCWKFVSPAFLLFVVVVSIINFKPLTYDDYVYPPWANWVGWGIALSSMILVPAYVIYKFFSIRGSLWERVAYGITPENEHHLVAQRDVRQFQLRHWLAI

[4] = target: T3, hNET (Homo sapiens, UniProt P23975); assay: [3H]-CFT saturation binding, adherent HEK […] cells; assay type: cell-based; conditions: read-out: Kd ± SD
T3 construct: gene SLC6A2; full-length, stably expressed in HEK 293 cells (Basel, 'cell line 2')
T3 sequence (P23975 whole entry): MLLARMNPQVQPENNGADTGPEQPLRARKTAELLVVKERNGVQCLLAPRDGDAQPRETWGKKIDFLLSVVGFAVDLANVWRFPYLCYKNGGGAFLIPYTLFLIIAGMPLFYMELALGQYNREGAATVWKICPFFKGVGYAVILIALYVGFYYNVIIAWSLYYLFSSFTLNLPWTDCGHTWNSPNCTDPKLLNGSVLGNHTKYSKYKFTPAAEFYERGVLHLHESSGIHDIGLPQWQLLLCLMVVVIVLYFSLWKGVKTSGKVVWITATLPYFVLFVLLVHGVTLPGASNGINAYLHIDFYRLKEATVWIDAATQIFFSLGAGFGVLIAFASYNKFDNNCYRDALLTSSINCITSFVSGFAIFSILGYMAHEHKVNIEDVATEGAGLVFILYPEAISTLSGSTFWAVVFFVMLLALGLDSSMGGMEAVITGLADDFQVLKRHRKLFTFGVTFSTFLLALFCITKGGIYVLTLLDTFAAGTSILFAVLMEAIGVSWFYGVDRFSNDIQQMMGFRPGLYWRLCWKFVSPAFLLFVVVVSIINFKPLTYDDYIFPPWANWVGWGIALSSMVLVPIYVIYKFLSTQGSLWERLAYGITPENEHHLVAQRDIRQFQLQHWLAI

[5] = target: T4, hSERT (Homo sapiens, UniProt P31645); assay: [3H]-CFT saturation binding, adherent HEK […] cells; assay type: cell-based; conditions: read-out: Kd ± SD
T4 construct: gene SLC6A4; full-length, stably expressed in HEK 293 cells (Basel, 'cell line 2')
T4 sequence (P31645 whole entry): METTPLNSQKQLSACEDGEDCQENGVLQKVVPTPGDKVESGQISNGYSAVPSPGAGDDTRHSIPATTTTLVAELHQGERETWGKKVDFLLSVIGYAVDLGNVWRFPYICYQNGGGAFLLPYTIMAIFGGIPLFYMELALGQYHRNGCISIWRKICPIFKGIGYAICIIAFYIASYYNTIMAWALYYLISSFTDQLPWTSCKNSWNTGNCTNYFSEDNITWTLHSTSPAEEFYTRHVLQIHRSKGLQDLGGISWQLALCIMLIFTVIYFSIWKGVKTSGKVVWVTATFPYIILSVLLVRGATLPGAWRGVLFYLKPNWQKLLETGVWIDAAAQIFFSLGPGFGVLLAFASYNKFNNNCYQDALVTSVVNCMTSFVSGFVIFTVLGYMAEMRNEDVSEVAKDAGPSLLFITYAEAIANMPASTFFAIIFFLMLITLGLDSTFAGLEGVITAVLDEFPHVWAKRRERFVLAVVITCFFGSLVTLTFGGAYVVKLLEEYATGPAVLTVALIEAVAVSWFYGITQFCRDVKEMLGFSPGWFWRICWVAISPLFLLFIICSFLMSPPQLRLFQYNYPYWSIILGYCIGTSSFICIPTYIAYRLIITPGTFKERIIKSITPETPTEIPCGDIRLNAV

[6] = tested on: T5, NCCc1c[nH]c2ccc(O)cc12; assay: cells, lysate or membranes; assay type: cell-based, Homo sapiens; conditions: cell line 2, labelled compound, 200 nM [3H]-5-HT diluted with unlabelled, KHB pH 7.3, room temperature, 1 min
T5 construct: full-length, stably expressed in HEK 293 cells (Basel, 'cell line 2')

[7] = substrate: NCCc1ccc(O)c(O)c1; assay: cells, lysate or membranes; assay type: cell-based, Rattus norvegicus; conditions: cell line 3, labelled compound, 200 nM [3H]-dopamine diluted with unlabelled, KHB pH 7.3, room temperature, 1 min
[8] = substrate: NCCc1ccc(O)c(O)c1; assay: cells, lysate or membranes; conditions: cell line 2, labelled compound, 200 nM [3H]-dopamine diluted with unlabelled, KHB pH 7.3, room temperature, 1 min

With `NCCc1c[nH]c2ccc(O)cc12` [5-HT] the Km [1] was 3.4 ± 1.5 µM.

For `COC(=O)[C@H]1[C@@H](c2ccc(F)cc2)C[C@@H]2CC[C@H]1N2C` [CFT, 2-β-carbomethoxy-3-β-(4-fluorophenyl)tropane], the Kd [2] was 1.13 ± 0.07 µM, the Kd [3] was 0.13 ± 0.07 µM and the Kd [4] was 0.07 ± 0.02 µM. The Kd [5] was 1.2 ± 0.4 µM.

With hSERT (Homo sapiens) the Km [6] was 4.1 ± 1.0 µM.

B1: rDAT (Rattus norvegicus) (protein)
chain: MSKSKCSVGPMSSVVAPAKESNAVGPREVELILVKEQNGVQLTNSTLINPPQTPVEAQERETWSKKIDFLLSVIGFAVDLANVWRFPYLCYKNGGGAFLVPYLLFMVIAGMPLFYMELALGQFNREGAAGVWKICPVLKGVGFTVILISFYVGFFYNVIIAWALHYFFSSFTMDLPWIHCNNTWNSPNCSDAHASNSSDGLGLNDTFGTTPAAEYFERGVLHLHQSRGIDDLGPPRWQLTACLVLVIVLLYFSLWKGVKTSGKVVWITATMPYVVLTALLLRGVTLPGAMDGIRAYLSVDFYRLCEASVWIDAATQVCFSLGVGFGVLIAFSSYNKFTNNCYRDAIITTSINSLTSFSSGFVVFSFLGYMAQKHNVPIRDVATDGPGLIFIIYPEAIATLPLSSAWAAVFFLMLLTLGIDSAMGGMESVITGLVDEFQLLHRHRELFTLGIVLATFLLSLFCVTNGGIYVFTLLDHFAAGTSILFGVLIEAIGVAWFYGVQQFSDDIKQMTGQRPNLYWRLCWKLVSPCFLLYVVVVSIVTFRPPHYGAYIFPDWANALGWIIATSSMAMVPIYATYKFCSLPGSFREKLAYAITPEKDHQLVDRGEVRQFTLRHWLLL
notes: full-length, stably expressed in HEK 293 cells (Vienna, 'cell line 3')
Work on B1 yielded a Km [7] of 8.8 ± 3.9 µM.

B2: hDAT (Homo sapiens) (protein)
chain: MSKSKCSVGLMSSVVAPAKEPNAVGPKEVELILVKEQNGVQLTSSTLTNPRQSPVEAQDRETWGKKIDFLLSVIGFAVDLANVWRFPYLCYKNGGGAFLVPYLLFMVIAGMPLFYMELALGQFNREGAAGVWKICPILKGVGFTVILISLYVGFFYNVIIAWALHYLFSSFTTELPWIHCNNSWNSPNCSDAHPGDSSGDSSGLNDTFGTTPAAEYFERGVLHLHQSHGIDDLGPPRWQLTACLVLVIVLLYFSLWKGVKTSGKVVWITATMPYVVLTALLLRGVTLPGAIDGIRAYLSVDFYRLCEASVWIDAATQVCFSLGVGFGVLIAFSSYNKFTNNCYRDAIVTTSINSLTSFSSGFVVFSFLGYMAQKHSVPIGDVAKDGPGLIFIIYPEAIATLPLSSAWAVVFFIMLLTLGIDSAMGGMESVITGLIDEFQLLHRHRELFTLFIVLATFLLSLFCVTNGGIYVFTLLDHFAAGTSILFGVLIEAIGVAWFYGVGQFSDDIQQMTGQRPSLYWRLCWKLVSPCFLLFVVVVSIVTFRPPHYGAYIFPDWANALGWVIATSSMAMVPIYAAYKFCSLPGSFREKLAYAIAPEKDRELVDRGEVRQFTLRHWLKV
B2 showed a Km [8] of 5.5 ± 0.8 µM.
